Each structure is given as a SMILES string. Where two headings read alike, the source gives them in different places.

Results on 6 molecules are retold here after patent US12338220B2, “Antiviral pyrazolopiridinone compounds” (Novartis AG, priority 2019, dated 2025).

One assay has as its system CMV. Nature of the assay: microbe, parasite or virus in culture. The format is cell-based.
The test system of a further assay is VZV Ellen strain. Nature of the assay: VZV qPCR assay. The conditions noted are these: Human alphaherpesvirus 3, MRC5, 48 h, read-out: Cellular activity against VZV (EC50). Background: In qPCR the cycle at which signal appears reflects the starting amount.
The subject of assay [1] is EBV (SNU-719 cells latently infected). As to the kind of experiment: EBV qPCR assay. The note with it: human gammaherpesvirus 4, 72 h, read-out: Cellular activity against EBV (EC50).
Assay [2] concerns KOS strain of HSV-1 virus. As to the kind of experiment: HSV-1 qPCR assay. The conditions noted are these: Human alphaherpesvirus 1, 24 h.
For a further assay, the target named is CMV-polymerase (Human cytomegalovirus (strain AD169) (HHV-5) (Human herpesvirus 5), UniProt P08546). Nature of the assay: biochemical.
The next assay concerns the target HSV-polymerase (Human herpesvirus 1 (strain 17) (HHV-1) (Human herpes simplex virus 1), UniProt P04293). Nature of the assay: biochemical.
Where [3] appears, read: Human betaherpesvirus 5, 72 h, read-out: CMV-Luc Cellular EC50, NN-NHDF cells, MOI 1, 72 hrs.
Where [4] appears, read: Human betaherpesvirus 5, read-out: Cellular activity against CMV (EC50), Table 18.
Setting [5] is: read-out: Cellular activity against HSV-1 (EC50).
[6] abbreviates: read-out: CMV-polymerase Biochemical IC50.
Where [7] appears, read: read-out: Cellular activity against HSV-1 (EC50), NN-NHDF cells, MOI 0.01, 24 hrs, qPCR.

Turning to `Cn1nc(C(=O)NCc2ccc(C#N)cc2)c2c1C(=O)N(CC1(S(=O)(=O)C(C)(C)[C@H](O)CN)CC1)CC2` [Example 198, (R)-6-((1-((4-amino-3-hydroxy-2-methylbutan-2-yl)sulfonyl)cyclopropyl)methyl)-N-(4-cyanobenzyl)-1-methyl-7-oxo-4,5,6,7-tetrahydro-1H-pyrazolo[3,4-c]pyridine-3-carboxamide], the EC50 in the assay on CMV (setting [3]) was found to be 18 nM; in the assay on CMV (setting [4]), 22 nM; in the assay on VZV Ellen strain, 39 nM; in assay [1] it was 4 nM; in assay [2] (setting [5]), 50 nM.

`Cn1nc(C(=O)NCc2ccc(C#N)cc2)c2c1C(=O)N(CC1(S(=O)(=O)C(C)(C)[C@H](O)CO)CC1)CC2` [Example 193, (R)-N-(4-Cyanobenzyl)-6-((1-((3,4-dihydroxy-2-methylbutan-2-yl)sulfonyl)cyclopropyl)methyl)-1-methyl-7-oxo-4,5,6,7-tetrahydro-1H-pyrazolo[3,4-c]pyridine-3-carboxamide]: the half-maximal inhibitory concentration (IC50) at CMV-polymerase (setting [6]) came to 1 nM. Besides, the EC50 with CMV (setting [4]) came to 26 nM; with VZV Ellen strain, 34 nM; in assay [1], 8 nM; in assay [2] (setting [7]) it was 58 nM.

In the case of `Cn1nc(C(=O)NCc2ccc(Cl)cc2)c2c1C(=O)N(CC1(S(=O)(=O)C(C)(CO)CO)CC1)CC2` [Example 175, N-(4-chlorobenzyl)-6-((1-((1,3-dihydroxy-2-methylpropan-2-yl)sulfonyl)cyclopropyl)methyl)-1-methyl-7-oxo-4,5,6,7-tetrahydro-1H-pyrazolo[3,4-c]pyridine-3-carboxamide], on CMV-polymerase (CMV-polymerase Biochemical IC50), the midpoint of inhibition, the IC50, lay at 3 nM. The EC50 stood at 26 nM in the assay on CMV (setting [3]); 26 nM in the assay with CMV (setting [4]); 34 nM with VZV Ellen strain; 8 nM in assay [1]; 58 nM in assay [2] (setting [7]).

In the case of `Cn1nc(C(=O)NCc2ccc(C#N)cc2)c2c1C(=O)N(CC1(S(=O)(=O)C(C)(CO)CO)CC1)CC2` [Example 176, N-(4-Cyanobenzyl)-6-((1-((1,3-dihydroxy-2-methylpropan-2-yl)sulfonyl)cyclopropyl)methyl)-1-methyl-7-oxo-4,5,6,7-tetrahydro-1H-pyrazolo[3,4-c]pyridine-3-carboxamide], the figures for the half-maximal inhibitory concentration (IC50) at CMV-polymerase (setting [6]) and against HSV-polymerase were 2 nM and 39 nM, respectively. In addition, the 50% effective concentration (EC50) in the assay with CMV (setting [3]) was 52 nM; in the assay with CMV (setting [4]), 52 nM; in the assay with VZV Ellen strain, 74 nM; in assay [1], 14 nM; in assay [2] (setting [7]) it was 95 nM.

For `N#Cc1ccc(CNC(=O)c2nn(CCO)c3c2CCN(CC2(S(=O)(=O)C4CC4)CC2)C3=O)cc1` [Example 216, N-(4-cyanobenzyl)-6-((1-(cyclopropylsulfonyl)cyclopropyl)methyl)-1-(2-hydroxyethyl)-7-oxo-4,5,6,7-tetrahydro-1H-pyrazolo[3,4-c]pyridine-3-carboxamide], on CMV-polymerase (setting [6]), the IC50 is 2 nM. Also, the 50% effective concentration (EC50) in the assay with CMV (setting [3]) was found to be 67 nM; in the assay with CMV (setting [4]), 67 nM; in the assay on VZV Ellen strain, 109 nM; in assay [1], 28 nM; in assay [2] (setting [5]), 112 nM.

`CC(C)(O)Cn1nc(C(=O)NCc2ccc(C#N)cc2)c2c1C(=O)N(CC1(S(=O)(=O)C3(CO)CC3)CC1)CC2` [Example 234, N-(4-Cyanobenzyl)-1-(2-hydroxy-2-methylpropyl)-6-((1-((1-(hydroxymethyl)cyclopropyl)sulfonyl)cyclopropyl)methyl)-7-oxo-4,5,6,7-tetrahydro-1H-pyrazolo[3,4-c]pyridine-3-carboxamide]: on CMV-polymerase (setting [6]), the IC50 was found to be 1 nM. In addition, the concentration giving a half-maximal response (EC50) in the assay with CMV (setting [3]) is 49 nM; in the assay with CMV (setting [4]), 49 nM; in the assay with VZV Ellen strain, 115 nM; in assay [1] it was 11 nM; in assay [2] (setting [7]) it was 83 nM.

What is called EC50 is the midpoint of the concentration-response curve. As usually defined, the IC50 is the concentration at which inhibition is half-maximal.
